Non-standard residues stand in square brackets, D forms with d. Residues, ends and D or L forms follow the SMILES beside them. *: point of attachment. CH2CH2O(Galα1-4Galβ) = OC[C@H]1O[C@H](O[C@@H]2[C@H](O)[C@@H](O)[C@H](OCC*)O[C@@H]2CO)[C@H](O)[C@@H](O)[C@H]1O; X1 = OC[C@H]1O[C@H](O[C@@H]2[C@H](O)[C@@H](O)[C@H](*)O[C@@H]2CO)[C@H](O)[C@@H](O)[C@H]1O; hCys = N[C@@H](CCS)C(=O)O
Legend:
[1] = system: target cells coated with different peptides and glycopeptides; experiment: Immunogenicity: mice immunized with glycopeptides, restimulated CTL tested for killing of coated target cells; assay type: in vivo; conditions: for Comments: Table 5, comment on immunogenicity and cross-reactivity of CTL
RMA-S cells = experiment: Membrane expression of the CHO part (Gal2) by antibody staining in FACS; assay type: cell-based; conditions: data not shown
Procedure: Panel A: RMA-s cells were incubated for 24 hours at 26° C. to induce expression of empty D^b MHC-1 chains at the cell surface, and at 37° C., and stained for D^b expression. Panel B: Removal of D^b expression by pronase treatment of RMA-S cells, preincubated at 26° C. Pronase treatment for 2 h and 4 h. D^b removal is complete at 4 h. Panels C and E: 26° C. induced RMA-S cells were treated with the glycopeptides Gal2 -CSG11 (panel C) or Gal2 CAS10 (panel E), 300 μM for 2 h at 37° C., washed and stained for Gal2 expression. Panels D and F: Glycopeptide treated RMA-S cells as in panels C and E were pronase treated to remove Db and glycopeptide expression, washed and further incubated at 37° C. to allow re-expression of glycopeptides and stained for Gal2 expression.
When the glycopeptide bind to MHC-1, on the cell surface, the expression (and acessibility) of the corresponding CHO part, can be detected by antibody staining in FACS, as described above in relation to FIGS. 10C and E.

[2] = system: monoclonal antibody MC2101; experiment: ELISA recognition of Gal2 glycopeptides by monoclonal antibody MC2101; assay type: binding, mouse; conditions: for Absorbance at 405 nm: antibody MC2101 (specificity Galabios Gal--Gal), peptides coated at 50 μg/ml, pH 9.6
Procedure: (§1) Peptides (50 μg/ml) were diluted in 0.05 M carbonate buffer (pH 9.6) and 100 μl/well was added to flat-bottomed Costar microplates (cat. No 3590) for incubation over-night at 4° C. Plates were washed once with PBS, pre-incubated with […] for 30 minutes at room temperature and washed twice with PBS/0.05% Tween buffer. Monoclonal antibodies were diluted in 0.5% gelatin/PBS/0.05% Tween, added to microplates and incubated for 2 hours at room temperaure, and flick-washed with PBS/Tween. Alkaline phosphatase conjugated rabbit anti-mouse immunoglobulins (Dakopauts code No. S 414) was diluted 1/1000 in PBS/Tween and added as 100 μl/well. After 2 hours incubation at room temperature and 4 washes with PBS/Tween, 100 μl of alkaline phosphatase substrate solution was added. Plates were read after 2 hour at room temperaure, using a Multiskan System (Lab systems), for optical density at 405 nm.
The ELISA assay was performed as described in connection with Table 4.

[3] = system: monoclonal antibody Pk002; experiment: ELISA recognition of Gal2 glycopeptides by monoclonal antibody Pk002; assay type: binding, mouse; conditions: antibody Pk002 (specificity Globotriaosyl Gal--Gal--Glc, CD77); peptides coated at 50 μg/ml, pH 9.6
Procedure: as §1

| Molecule | Comments [1] | expression of the Gal2 epitope on the surface of cells that have bound glycopeptides (FACS) (RMA-S cells) | Absorbance at 405 nm [2] | Absorbance at 405 nm [3] | also measured |
| --- | --- | --- | --- | --- | --- |
| F A P G h Y P A L [FAP9-5h] | Weaker, low FAP9 reactivity | – | – | – | – |
| R G Y h Y Q G L [RGY8-4h] | Strong, with RGY8 reactivity | – | – | – | – |
| ASNENMDAM [pep 9(NT60)] | – | – | – | – | lysis of virus specific and peptide-coated EL4 cells by induced CTL (EL4 target cells; 0.05 μM used for restimulation versus 5 μM and 0.5 μM, 100 μg s.c.): more efficiently lysed; anti-peptide and antiviral CTL responses (EL4 target cells; compared with pep 9(PR8), FIG. 3): stronger anti-peptide and antiviral CTL responses; specificity of induced CTL (EL4 target cells; mouse, in vivo): preferentially killed their corresponding peptide-coated and virus-infected cells |
| CSCC[C@H](NC(=O)[C@@H](NC(=O)[C@H](CCC(=O)O)NC(=O)[C@H](CO[C@@H]1O[C@H](CO)[C@H](O[C@H]2O[C@H](CO)[C@H](O)[C@H](O)[C@H]2O)[C@H](O)[C@H]1O)NC(=O)[C@H](CC(N)=O)NC(=O)[C@H](CCC(=O)O)NC(=O)[C@H](CC(N)=O)NC(=O)[C@H](CO)NC(=O)[C@H](C)N)[C@@H](C)O)C(=O)O [Conjugate A5N9-6S-Gal2] (H-ASNENS(X1)ETM-OH) | – | not recognized | – | – | – |
| CC(C)C[C@H](NC(=O)CNC(=O)[C@H](CCC(N)=O)NC(=O)[C@H](Cc1ccc(O)cc1)NC(=O)[C@@H](NC(=O)[C@H](Cc1ccc(O)cc1)NC(=O)CNC(=O)[C@H](CCCNC(=N)N)NC(=O)[C@@H](N)CSCCO[C@@H]1O[C@H](CO)[C@H](O[C@H]2O[C@H](CO)[C@H](O)[C@H](O)[C@H]2O)[C@H](O)[C@H]1O)C(C)C)C(=O)O [Gal2 -CRG9] | – | high Gal2 expression | – | – | – |
| CC(C)C[C@H](NC(=O)[C@H](CSCCO[C@@H]1O[C@H](CO)[C@H](O[C@H]2O[C@H](CO)[C@H](O)[C@H](O)[C@H]2O)[C@H](O)[C@H]1O)NC(=O)[C@H](Cc1ccc(O)cc1)NC(=O)CNC(=O)CNC(=O)[C@@H]1CCCN1C(=O)[C@H](CC(N)=O)NC(=O)[C@H](CCC(=O)O)NC(=O)[C@@H](NC(=O)CNC(=O)[C@@H](N)CO)C(C)C)C(=O)N[C@H](C(=O)O)[C@@H](C)O [SGV12-Gal2] | – | high Gal2 expression | – | – | killing of EL-4 cells coated with glycopeptide 7 by generated CTL ([1]; FIG. 13): at a lower level; killing of EL-4 cells coated with glycopeptides 2 and 5 by generated CTL ([1]; FIG. 13): killed; recognition of carrier peptide alone (SGV12) and other control peptides by generated CTL ([1]; FIG. 13): did not recognize the carrier peptide alone; type of T cell response generated by immunization ([1]; mouse, in vivo): Gal2 specific T cell response |
| CSCC[C@H](NC(=O)[C@@H](NC(=O)[C@H](CCC(=O)O)NC(=O)[C@H](CCSC)NC(=O)[C@H](CC(N)=O)NC(=O)[C@H](CCC(=O)O)NC(=O)[C@H](CC(N)=O)NC(=O)[C@H](CO)NC(=O)[C@H](C)NC(=O)[C@@H](N)CSCCO[C@@H]1O[C@H](CO)[C@H](O[C@H]2O[C@H](CO)[C@H](O)[C@H](O)[C@H]2O)[C@H](O)[C@H]1O)[C@@H](C)O)C(=O)O [Gal2 -CAS10] | – | – | 0.41 | 0.04 | – |
| CC[C@H](C)[C@H](NC(=O)[C@H](CCC(=O)O)NC(=O)[C@@H]1CCCN1C(=O)[C@@H]1CCCN1C(=O)[C@@H](NC(=O)[C@H](CC(N)=O)NC(=O)[C@H](CO)NC(=O)[C@@H]1CCCN1C(=O)CNC(=O)[C@H](CO)NC(=O)[C@@H](N)CSCCO[C@@H]1O[C@H](CO)[C@H](O[C@H]2O[C@H](CO)[C@H](O)[C@H](O)[C@H]2O)[C@H](O)[C@H]1O)[C@@H](C)O)C(=O)O [Gal2 -CSG11] | – | high Gal2 expression | 1.86 | 0.04 | reactivity with MC2101 in ELISA, comparison [2]: reacted stronger than the GAL2 -CAS10 peptide |
| CC(C)C[C@H](NC(=O)CNC(=O)[C@H](CCC(N)=O)NC(=O)[C@H](Cc1ccc(O)cc1)NC(=O)[C@H](CCSCCO[C@@H]1O[C@H](CO)[C@H](O[C@H]2O[C@H](CO)[C@H](O)[C@H](O)[C@H]2O)[C@H](O)[C@H]1O)NC(=O)[C@H](Cc1ccc(O)cc1)NC(=O)CNC(=O)[C@@H](N)CCCNC(=N)N)C(=O)O [RGY8-4h-Gal2] (H-RGY[hCys](CH2CH2O(Galα1-4Galβ))YQGL-OH) | – | – | – | – | CTL generated, tested against EL-4 cells coated with RGY8-4 h-Gal2 and RGY8-4 h ([1]; FIG. 14(A)): both peptide and glycopeptide specific CTL cells are generated; killing of EL-4 cells coated with SGV12-Gal2 or SGV12 by generated CTL ([1]; FIG. 14(B), criss-cross): only the cells coated with glycopeptide were killed |
| CSGPSNTPPEI [CSG11] | – | – | 0.01 | 0.08 | – |
| C A S N E N M E T M (CASNENMETM) [CAS10] | – | – | 0.02 | 0.01 | – |
| FAP9: K^b binding peptide, SEQ ID NO: 20; sequence not printed (FAPGNYPAL) | Strong, with high FAP9-5h reactivity | – | – | – | – |
| RGYVYQGL [RGY8] | Some RGY8-4h reactivity | – | – | – | – |
